This data set is described as follows: Reversible water uptake and release of pymetrozine at defined relative humidity. Type of data set: physicochemical. Particulars: room temperature. From the text: The above-mentioned water content of 16 to 17% by weight corresponds very well to a dihydrate. Even pesticidal formulations that contain water-free and solvent-free pymetrozine take up usually water or the corresponding solvent from the atmosphere when left to stand under sufficiently high vapour pressure.

On to `CC1=NNC(=O)N(/N=C/c2cccnc2)C1` [pymetrozine], for which, under “relative humidity between 60% and 70%”, the water taken up is reported as 16 to 17 % by weight. In addition, the water release result (relative humidity of less than ca. 10%, water-containing pymetrozine) was “gives up the water completely”.

These data come from patent US6784176B2, “Solvates of pymetrozine” (priority 1999, dated 2004).
